The target in data set [1] is T1, Human Nav1.7 (Homo sapiens, UniProt Q15858).
T1 construct: expressed in transfected cells; host or cells: Spiking HEK cells (without Kir2.1 transfection)
Briefly: Ionworks Barracuda (IWB) automated patch clamp assay. Type of data set: cell-based. As to conditions: population patch clamp, HEK cells, 4 min compound incubation at -20 mV; read-out: hNaV1.7 IWB-U IC50. As for the experimental part: Ionworks Barracuda Automated Patch Clamp Assay (Same Protocol for Both Human and Mouse)
Human Nav1.7 currents were recorded in population patch-clamp mode with the IWB automated electrophysiology system (Molecular Devices, LLC, Sunnyvale, Calif.). Spiking HEK cells (without Kir2.1 transfection) were cultured and prepared for recordings as previously described for IonWorks Quattro testing^1. The external solution consisted of the following (in mM): NaCl 140, KCl 5, CaCl2 2, MgCl2 1, HEPES 10, and glucose 11, pH 7.4, with N-methyl-D-glucamine at 320 mOsmol. The internal solution consisted of the following (in mM): KCl 70, KF 70, MgCl2 0.25, HEDTA 5, and HEPES 10, pH 7.25, with Nmethyl-D-glucamine, 300 mOsmol. From a holding potential of −110 mV, currents were elicited by a train of 26 depolarizations of 150 ms duration to −20 mV at a frequency of 5 Hz. Cells were then clamped to −20 mV for a period of 4 minutes in the presence of a single concentration of test compound. Following this compound incubation period, cells were clamped to −110 mV for three seconds to recover unbound channels and put through the same 26 pulse voltage protocol as above. Peak inward current during the 26th pulse to −20 mV in the presence of compound was divided by the peak inward current evoked by the 26th pulse to −20 mV in the absence of compound to determine percent inhibition. Concentration-response curves of percent inhibition as a function of concentration were generated to calculate IC50 values as described in Kornecook, T. J.; Yin, R.; Altmann, S.; et al. Pharmacologic Characterization of AMG8379, a Potent and Selective Small Molecule Sulfonamide Antagonist of the Voltage-Gated Sodium Channel NaV1. 7. J. Pharmacol. Exp. Ther. 2017, 362, 146-160.

The test system of data set [2] is CYP3A4. As to the kind of experiment: Human CYP 3A4 induction assay (mRNA, cryopreserved human hepatocytes). Type of data set: in vitro ADME. Conditions: 72 hours, percent of control (POC); for CYP3A4 mRNA Induct Hu 2 uM POC: 2 uM test compound; for CYP3A4 mRNA Induct Hu 10 uM POC: 10 uM test compound. As for the experimental part:
Human CYP 3A4 Induction Assay
Cryopreserved human hepatocytes were seeded in 96-well collagen coated plates at 70,000 cells per well in hepatocyte plating media (HPM, final concentrations: lx Dulbecco's Modified Eagle's Medium, 0.1 μM dexamethasone, 10% fetal bovine serum, lx ITS, 1×PSG) followed by incubation at 37° C. under 5% CO2 and 90% relative humidity for 2 days to allow hepatocytes to form a confluent layer. On Day 3, hepatocytes were treated with either test compound or rifampin (20 μM, positive control for CYP3A induction) prepared in hepatocyte incubation media ((HIM, final concentrations: 1× William's Medium E, 0.1 μM dexamethasone, 1×ITS, 1×PSG). Treatment was performed for 72 hours with either 2 concentrations (2 μM or 10 μM) or a range of concentrations (0.001 μM to 100 μM) of the test compound to obtain full dose-response curve. Fresh media containing the relevant concentrations of the test compound was replaced every day until the samples were processed. After 72 hours of incubation, samples were processed for mRNA analysis using bDNA technology using manufacturer's instructions (Affymetrix, Fremont, Calif.). Cell viability was tested at the end of the experiment using MTT assay kit (Roche Diagnostics, Basel, Switzerland). Data was analyzed and presented as percent of control (POC) and Emax and EC50 obtained when appropriate according to guidance from Center for Drug Evaluation and Research (CDER), 2006, Guidance for Industry, Drug Interaction Studies—Study Design, Data Analysis, and Implications for Dosing and Labeling.
Cryopreserved human hepatocytes were seeded in 96-well collagen coated plates at 70,000 cells per well in hepatocyte plating media (HPM, final concentrations: lx Dulbecco's Modified Eagle's Medium, 0.1 μM dexamethasone, 10% fetal bovine serum, lx ITS, 1×PSG) followed by incubation at 37° C. under 5% CO2 and 90% relative humidity for 2 days to allow hepatocytes to form a confluent layer. On Day 3, hepatocytes were treated with either test compound or rifampin (20 μM, positive control for CYP3A induction) prepared in hepatocyte incubation media ((HIM, final concentrations: 1× William's Medium E, 0.1 μM dexamethasone, 1×ITS, 1×PSG). Treatment was performed for 72 hours with either 2 concentrations (2 μM or 10 μM) or a range of concentrations (0.001 μM to 100 μM) of the test compound to obtain full dose-response curve. Fresh media containing the relevant concentrations of the test compound was replaced every day until the samples were processed. After 72 hours of incubation, samples were processed for mRNA analysis using bDNA technology using manufacturer's instructions (Affymetrix, Fremont, Calif.). Cell viability was tested at the end of the experiment using MTT assay kit (Roche Diagnostics, Basel, Switzerland). Data was analyzed and presented as percent of control (POC) and Emax and EC50 obtained when appropriate, as described in Halladay, J. et al, 2012, An “all-inclusive” 96-well cytochrome P450 induction method: Measuring enzyme activity, mRNA levels, protein levels, and cytotoxicity from one well using cryopreserved human hepatocytes, Pharmacological and Toxicological Methods, 66:270-275.

The values below come from patent publication US20230227442A1, “HETEROALKYL DIHYDROQUINOLINE SULFONAMIDE COMPOUNDS” (AMGEN INC., priority 2020, published 2023).

T1 sequence (Q15858 whole entry): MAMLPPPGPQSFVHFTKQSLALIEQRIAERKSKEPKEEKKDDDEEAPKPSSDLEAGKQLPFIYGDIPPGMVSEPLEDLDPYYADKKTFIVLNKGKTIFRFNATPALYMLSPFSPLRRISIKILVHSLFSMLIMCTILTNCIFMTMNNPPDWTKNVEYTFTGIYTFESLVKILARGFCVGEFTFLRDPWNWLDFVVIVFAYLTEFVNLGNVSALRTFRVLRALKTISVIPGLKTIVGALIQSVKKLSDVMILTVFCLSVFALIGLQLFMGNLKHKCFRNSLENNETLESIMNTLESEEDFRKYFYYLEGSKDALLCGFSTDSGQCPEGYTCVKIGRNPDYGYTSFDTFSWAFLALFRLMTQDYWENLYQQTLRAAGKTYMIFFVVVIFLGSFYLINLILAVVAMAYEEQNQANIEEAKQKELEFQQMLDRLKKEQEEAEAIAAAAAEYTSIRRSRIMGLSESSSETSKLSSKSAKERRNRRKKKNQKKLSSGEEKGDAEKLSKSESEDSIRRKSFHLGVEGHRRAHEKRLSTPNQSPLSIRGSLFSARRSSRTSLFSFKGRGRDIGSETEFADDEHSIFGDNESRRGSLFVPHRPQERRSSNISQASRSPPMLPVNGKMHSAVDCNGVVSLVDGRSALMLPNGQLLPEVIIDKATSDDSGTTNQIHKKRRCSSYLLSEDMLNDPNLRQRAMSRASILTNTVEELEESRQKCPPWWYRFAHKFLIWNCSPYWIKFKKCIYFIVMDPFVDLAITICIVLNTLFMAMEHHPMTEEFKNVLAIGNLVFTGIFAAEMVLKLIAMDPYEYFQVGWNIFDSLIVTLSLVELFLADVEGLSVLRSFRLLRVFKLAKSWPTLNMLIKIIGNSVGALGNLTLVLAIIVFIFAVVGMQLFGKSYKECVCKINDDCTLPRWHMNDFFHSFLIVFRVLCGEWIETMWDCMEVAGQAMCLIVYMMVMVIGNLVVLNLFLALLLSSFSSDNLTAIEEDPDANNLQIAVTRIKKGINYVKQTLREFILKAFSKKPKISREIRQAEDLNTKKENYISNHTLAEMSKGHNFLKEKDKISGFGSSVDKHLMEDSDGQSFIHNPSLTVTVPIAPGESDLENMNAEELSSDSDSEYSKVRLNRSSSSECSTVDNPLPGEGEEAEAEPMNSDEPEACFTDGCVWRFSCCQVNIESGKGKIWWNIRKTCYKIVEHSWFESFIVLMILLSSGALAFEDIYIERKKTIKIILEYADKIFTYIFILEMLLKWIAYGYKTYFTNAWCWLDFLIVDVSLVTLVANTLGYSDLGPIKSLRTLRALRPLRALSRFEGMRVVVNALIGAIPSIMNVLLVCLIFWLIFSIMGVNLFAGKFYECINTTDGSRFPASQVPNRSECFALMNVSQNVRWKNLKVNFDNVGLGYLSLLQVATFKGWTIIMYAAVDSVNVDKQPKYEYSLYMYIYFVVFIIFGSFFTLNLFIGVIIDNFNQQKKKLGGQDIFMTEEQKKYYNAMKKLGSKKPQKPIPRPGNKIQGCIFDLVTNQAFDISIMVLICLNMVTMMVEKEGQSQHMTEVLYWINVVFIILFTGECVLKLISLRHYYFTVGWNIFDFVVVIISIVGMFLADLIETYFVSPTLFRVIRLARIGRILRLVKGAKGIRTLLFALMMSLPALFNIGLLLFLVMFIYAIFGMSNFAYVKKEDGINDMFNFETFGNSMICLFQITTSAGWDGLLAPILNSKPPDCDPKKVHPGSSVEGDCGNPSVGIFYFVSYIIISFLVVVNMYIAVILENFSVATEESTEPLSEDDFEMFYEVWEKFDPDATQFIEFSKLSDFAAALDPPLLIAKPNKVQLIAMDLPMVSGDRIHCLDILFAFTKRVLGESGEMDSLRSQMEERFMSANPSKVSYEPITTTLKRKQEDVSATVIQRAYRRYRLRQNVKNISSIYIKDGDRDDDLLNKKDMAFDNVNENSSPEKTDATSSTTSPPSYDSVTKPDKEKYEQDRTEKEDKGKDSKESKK

The IC50 is the concentration needed to halve the response being measured. With `COc1cc(OCC(F)(F)F)c(F)cc1-n1c(=O)ccc2cc(S(=O)(=O)Nc3ccon3)ccc21` (atropisomer, axis not shown; (P)) [Example 10, (P)-1-(5-fluoro-2-methoxy-4-(2,2,2-trifluoroethoxy)phenyl)-N-(isoxazol-3-yl)-2-oxo-1,2-dihydroquinoline-6-sulfonamide], the concentration for half-maximal inhibition (IC50) in data set [1] was 0.021 µM. In data set [2], the “CYP3A4 mRNA Induct Hu 2 uM POC” value came out at 10.8% and the “CYP3A4 mRNA Induct Hu 10 uM POC” value amounted to 35.7%.
For `COc1cc(OC(F)(F)F)c(F)cc1-n1c(=O)ccc2cc(S(=O)(=O)Nc3ccon3)ccc21` (atropisomer, axis not shown; (P)) [Example 9, (P)-1-(5-fluoro-2-methoxy-4-(trifluoromethoxy)phenyl)-N-(isoxazol-3-yl)-2-oxo-1,2-dihydroquinoline-6-sulfonamide], in that order: 0.021 µM, 7.8% and 22.2%.
`COc1cc(OC(F)(F)F)c(Cl)cc1-n1c(=O)ccc2cc(S(=O)(=O)Nc3ccon3)ccc21` (atropisomer, axis not shown; (P)) [Example 3, (P)-1-(5-chloro-2-methoxy-4-(trifluoromethoxy)phenyl)-N-(isoxazol-3-yl)-2-oxo-1,2-dihydroquinoline-6-sulfonamide]: the IC50 in data set [1] was 0.009 µM. For the same compound, in data set [2], the “CYP3A4 mRNA Induct Hu 2 uM POC” value is recorded as 10.1% and the “CYP3A4 mRNA Induct Hu 10 uM POC” value came to 35.4%.
The like results for `COc1cc(OCC(F)(F)F)c(F)cc1-n1c(=O)c(F)cc2cc(S(=O)(=O)Nc3ccon3)ccc21` (atropisomer, axis not shown; (P)) [Example 25, (P)-3-fluoro-1-(5-fluoro-2-methoxy-4-(2,2,2-trifluoroethoxy)phenyl)-N-(isoxazol-3-yl)-2-oxo-1,2-dihydroquinoline-6-sulfonamide] were, in that order, 0.102 µM, 11.5% and 38.0%.
The like results for `COc1cc(SC(F)(F)F)c(F)cc1-n1c(=O)ccc2cc(S(=O)(=O)Nc3ccon3)ccc21` (atropisomer, axis not shown; (P)) [Example 8, (P)-1-(5-fluoro-2-methoxy-4-((trifluoromethyl)thio)phenyl)-N-(isoxazol-3-yl)-2-oxo-1,2-dihydroquinoline-6-sulfonamide] were, in that order, 0.015 µM, 6.1% and 24.5%.
Consider `COc1cc(O[C@H](C)C(F)(F)F)c(F)cc1-n1c(=O)ccc2cc(S(=O)(=O)Nc3ccon3)ccc21` (atropisomer, axis not shown; (P)) [Example 21, (P)-(R)-1-(5-fluoro-2-methoxy-4-((1,1,1-trifluoropropan-2-yl)oxy)phenyl)-N-(isoxazol-3-yl)-2-oxo-1,2-dihydroquinoline-6-sulfonamide], for which the IC50 in data set [1] was 0.032 µM. Also, in data set [2], the “CYP3A4 mRNA Induct Hu 2 uM POC” value was determined as 0.4% and the “CYP3A4 mRNA Induct Hu 10 uM POC” value is listed as 1.8%.
The like results for `COc1cc(OCCC(F)(F)F)c(F)cc1-n1c(=O)ccc2cc(S(=O)(=O)Nc3ccon3)c(F)cc21` (atropisomer, axis not shown; (P)) [Example 22, (P)-7-fluoro-1-(5-fluoro-2-methoxy-4-(3,3,3-trifluoropropoxy)phenyl)-N-(isoxazol-3-yl)-2-oxo-1,2-dihydroquinoline-6-sulfonamide] were, in that order, 0.034 µM, 14.8% and 41.5%.
The like results for `COc1cc(OCC(F)(F)F)c(Cl)cc1-n1c(=O)ccc2cc(S(=O)(=O)Nc3ccon3)ccc21` (atropisomer, axis not shown; (P)) [Example 15, (P)-1-(5-chloro-2-methoxy-4-(2,2,2-trifluoroethoxy)phenyl)-N-(isoxazol-3-yl)-2-oxo-1,2-dihydroquinoline-6-sulfonamide] were, in that order, 0.023 µM, 7.7% and 20.2%.
On to `COc1cc(SC(F)(F)F)c(F)cc1-n1c(=O)cc(F)c2cc(S(=O)(=O)Nc3ccon3)ccc21` [Example 11, P-4-fluoro-1-(5-fluoro-2-methoxy-4-((trifluoromethyl)thio)phenyl)-N-(isoxazol-3-yl)-2-oxo-1,2-dihydroquinoline-6-sulfonamide], for which the 50% inhibitory concentration (IC50) in data set [1] stood at 0.01 µM. In data set [2], the “CYP3A4 mRNA Induct Hu 2 uM POC” value was found to be 7.3% and the “CYP3A4 mRNA Induct Hu 10 uM POC” value is 48.1%.
Take `COc1cc(COC(F)(F)F)c(Cl)cc1-n1c(=O)ccc2cc(S(=O)(=O)Nc3ccon3)ccc21` (atropisomer, axis not shown; (P)) [Example 1, (P)-1-(5-chloro-2-methoxy-4-((trifluoromethoxy)methyl)phenyl)-N-(isoxazol-3-yl)-2-oxo-1,2-dihydroquinoline-6-sulfonamide]: the IC50 in data set [1] is 0.007 µM. Also, in data set [2], the “CYP3A4 mRNA Induct Hu 2 uM POC” value worked out at 1.7%.
With `COc1cc(SC(F)(F)F)c(F)cc1-n1c(=O)ccc2cc(S(=O)(=O)Nc3ccon3)c(F)cc21` (atropisomer, axis not shown; (P)) [Example 7, (P)-7-fluoro-1-(5-fluoro-2-methoxy-4-((trifluoromethyl)thio)phenyl)-N-(isoxazol-3-yl)-2-oxo-1,2-dihydroquinoline-6-sulfonamide], the IC50 in data set [1] amounted to 0.011 µM. For the same compound, in data set [2], the “CYP3A4 mRNA Induct Hu 2 uM POC” value worked out at 20.9% and the “CYP3A4 mRNA Induct Hu 10 uM POC” value is listed as 54.2%.
For `COc1cc(O[C@H](C)C(F)(F)F)c(F)cc1-n1c(=O)ccc2cc(S(=O)(=O)Nc3ccon3)c(F)cc21` (atropisomer, axis not shown; (P)) [Example 16, (P)-(R)-7-fluoro-1-(5-fluoro-2-methoxy-4-((1,1,1-trifluoropropan-2-yl)oxy)phenyl)-N-(isoxazol-3-yl)-2-oxo-1,2-dihydroquinoline-6-sulfonamide], in that order: 0.024 µM, 3.9% and 7.2%.
In the case of `COc1cc(O[C@@H](C)C(F)(F)F)c(F)cc1-n1c(=O)ccc2cc(S(=O)(=O)Nc3ccon3)c(F)cc21` (atropisomer, axis not shown; (P)) [Example 17, (P)-(S)-7-fluoro-1-(5-fluoro-2-methoxy-4-((1,1,1-trifluoropropan-2-yl)oxy)phenyl)-N-(isoxazol-3-yl)-2-oxo-1,2-dihydroquinoline-6-sulfonamide], in data set [1], the IC50 is 0.027 µM. Further, in data set [2], the “CYP3A4 mRNA Induct Hu 2 uM POC” value came to 16.3% and the “CYP3A4 mRNA Induct Hu 10 uM POC” value was 39.8%.
